We go through one compound from patent publication US8742082B2, “Compositions and methods for influencing satiety, lipid metabolism, and fat utilization” (Nestec S.A., priority 2008, dated 2014).

Format in all cases: in vivo
Test [1] concerns Fatty Acid Synthase (FAS 1). The test can be described thus: Real-time PCR gene expression in peripheral tissues: FAS. To be noted: liver; C57bl6j mice, high fat diet, 100 mg/kg/body weight in diet, 5 weeks. The procedure:
(§1) The expression of 45 genes was measured by real-time PCR in peripheral tissues to identify genes that were differentially expressed in response to oral administration of oleoylethanolamide (OEA) or a non-hydrolysable OEA analog (KDS 5104), which affect satiety, lipid metabolism, fat utilization, food intake, and body fat mass.
(§2) Animals, diet, and experimental design. Adult male C57bl6j mice purchased at 8 weeks of age were individually housed and maintained ad libitum on high fat diet and water for 2 weeks. Seven mice were randomly allocated in 3 groups and fed with a high fat diet (lipids represented 50% of daily energy) for 2 weeks. […]
(§3) RNA extraction and gene expression. […] The RNA concentration was determined on nanodrop from the absorbance at 260 nm. […] Real-time quantitative PCR (RT-qPCR) were performed on cDNA obtained as described above using a high through put system (Biomek 3000, Beckman & Coulter, Fullerton, USA) and a Lightcycler 480 (Roche/Hitachi, Basel, Switzerland) with SYBR Green Master mix+kit (Eurogentec, Philadelphia, USA). […] Values were expressed as ratio of RNA levels relative to control mice (diets with 0 mg of OEA/kg/body weight) using ΔΔ(Ct) (Livak K J & Schmittgen T D, 2001, Methods 25:402-8). Gene expression of the following genes was measured (abbreviation and GenBank Accession shown in parentheses). […]

The subject of test [2] is Glucose 6-phosphatase (G6P). Nature of the test: Real-time PCR gene expression in peripheral tissues: G6P. To be noted: liver; C57bl6j mice, high fat diet, 100 mg/kg/body weight in diet, 5 weeks. As for the experimental part:
as §1, §2, §3
For orientation: Real-time PCR tracks product formation cycle by cycle.

Test [3] has as its system G protein coupled receptor 119 (GPR 119). The test can be described thus: Real-time PCR gene expression in peripheral tissues: GPR119. To be noted: proximal intestine; C57bl6j mice, high fat diet, 100 mg/kg/body weight in diet, 5 weeks. As for the experimental part: as §1, §2, §3
In test [4] the test system is N-acylsphingosine amidohydrolase-like (NAAA). The test can be described thus: Real-time PCR gene expression in peripheral tissues: NAAA. To be noted: C57bl6j mice, high fat diet, 100 mg/kg/body weight in diet, 5 weeks. As for the experimental part:
as §1
(§4) Animals, diet, and experimental design. Adult male C57bl6j mice purchased at 8 weeks of age were individually housed and maintained ad libitum on high fat diet and water for 2 weeks. Seven mice were randomly allocated in 3 groups and fed with a high fat diet (lipids represented 50% of daily energy) for 2 weeks. For one kilogram, the composition of the high fat diet was: 235 g casein, 201 g saccharose, 3.5 g L-cystine, 85 g starch, 116 g maltodextrin, 60 g cellulose, 12 g vitamins mix (AIN-93M, UPAE, Jouy-en-Josas, France), 51.5 g mineral mix (AIN-93Vx, UPAE, Jouy-en-Josas, France), and 236 g lard. Then, either OEA or KDS 5104 was added to the diet at a concentration of 100 mg/kg/body weight. The mice were kept under treatment for 5 weeks.
(§5) Sampling. At the end of the experimental period, mice were sacrificed by blood drawing (cardiac puncture) after anesthesia with isoflurane. Plasma was obtained by centrifugation (1,000 g for 10 min at 4° C.). Mesenteric, epididymal, inguinal and peritoneal adipose depots, as well as liver, stomach, small intestine mucosa, pancreas, and gastrocnemian muscle were removed and frozen into liquid nitrogen. Plasma, urine, feces, and organ samples were kept at −80° C. until analysis.
(§6) RNA extraction and gene expression. Total RNA from liver, intestine mucous membrane, adipose tissues, gastrocnemian muscle, pancreas and stomach were extracted with TRIzol reagent (Invitrogen, Carlsbad, USA) according to the manufacturer's instruction. The RNA concentration was determined on nanodrop from the absorbance at 260 nm. Retro-transcription PCRs to synthesize cDNA were performed using an Applied Biosystem Thermal Cycler 2720 and Superscript II (Invitrogen, Carlsbad, USA) according to manufacturer's protocol. Real-time quantitative PCR (RT-qPCR) were performed on cDNA obtained as described above using a high through put system (Biomek 3000, Beckman & Coulter, Fullerton, USA) and a Lightcycler 480 (Roche/Hitachi, Basel, Switzerland) with SYBR Green Master mix+kit (Eurogentec, Philadelphia, USA). Primers for the selected genes were generated using online informatics assistance from the Lightcycler manufacturer (Roche). Databases used to identify the genes were (1) the NCBI database (GenBank) and (2) the IHOP (Information Hyperlinked over Protein) database (www.ihop-net.org/UniPub/iHOP/bng/). Values were expressed as ratio of RNA levels relative to control mice (diets with 0 mg of OEA/kg/body weight) using ΔΔ(Ct) (Livak K J & Schmittgen T D, 2001, Methods 25:402-8). Gene expression of the following genes was measured (abbreviation and GenBank Accession shown in parentheses).
(§7) Statistical analysis. […] Statistical analysis of physiological parameters and gene expression data was performed by one-way ANOVA on Statview software (SAS Institute, Cary, USA). Daily food intake was analyzed using two-way ANOVA on Statview software. Statistical significance was set up at the P<0.05 level, the P<0.01 level and the P<0.001 level. For statistical analysis of the gene expression data, values were calculated relative to 18S expression for each mouse and gene.

The subject of test [5] is Protein convertase subtilisin/kexin type 9 (PCSK 9). Nature of the test: Real-time PCR gene expression in peripheral tissues: PCSK9. To be noted: liver; C57bl6j mice, high fat diet, 100 mg/kg/body weight in diet, 5 weeks. The procedure: as §1, §2, §3
For test [6], the system named is Phosphoenolpyruvate carboxykinase (PEP CK). Nature of the test: Real-time PCR gene expression in peripheral tissues: PepCK. The note with it: liver; C57bl6j mice, high fat diet, 100 mg/kg/body weight in diet, 5 weeks. As for the experimental part:
as §1, §2, §3

For test [7], the system named is Visfatin. Nature of the test: Real-time PCR gene expression in peripheral tissues: visfatin. To be noted: C57bl6j mice, high fat diet, 100 mg/kg/body weight in diet, 5 weeks. The procedure:
as §1, §4, §5
RNA extraction and gene expression. Total RNA from liver, intestine mucous membrane, adipose tissues, gastrocnemian muscle, pancreas and stomach were extracted with TRIzol reagent (Invitrogen, Carlsbad, USA) according to the manufacturer's instruction. The RNA concentration was determined on nanodrop from the absorbance at 260 nm. […] Real-time quantitative PCR (RT-qPCR) were performed on cDNA obtained as described above using a high through put system (Biomek 3000, Beckman & Coulter, Fullerton, USA) and a Lightcycler 480 (Roche/Hitachi, Basel, Switzerland) with SYBR Green Master mix+kit (Eurogentec, Philadelphia, USA). […] Values were expressed as ratio of RNA levels relative to control mice (diets with 0 mg of OEA/kg/body weight) using ΔΔ(Ct) (Livak K J & Schmittgen T D, 2001, Methods 25:402-8). Gene expression of the following genes was measured (abbreviation and GenBank Accession shown in parentheses).
Statistical analysis. […] Daily food intake was analyzed using two-way ANOVA on Statview software. […] For statistical analysis of the gene expression data, values were calculated relative to 18S expression for each mouse and gene.

Test [8] relates to Fatty acid transporter/cluster of differentiation 36 (FAT/CD 36). Nature of the test: Real-time PCR gene expression in peripheral tissues: FAT/CD36. The note with it: C57bl6j mice, high fat diet, 100 mg/kg/body weight in diet, 5 weeks. The procedure: as §1, §4, §5, §6
Statistical analysis. Results are presented as means±standard error of the means (SEM). Statistical analysis of physiological parameters and gene expression data was performed by one-way ANOVA on Statview software (SAS Institute, Cary, USA). Daily food intake was analyzed using two-way ANOVA on Statview software. Statistical significance was set up at the P<0.05 level, the P<0.01 level and the P<0.001 level. For statistical analysis of the gene expression data, values were calculated relative to 18S expression for each mouse and gene.

Test [9] concerns CPT1. The test can be described thus: Real-time PCR gene expression in peripheral tissues: CPT1. The note with it: C57bl6j mice, high fat diet, 100 mg/kg/body weight in diet, 5 weeks. As for the experimental part:
as §1, §4, §5, §6, §7

In test [10] the test system is Oleoylethanolamide synthase (OEA synthase). The test can be described thus: Real-time PCR gene expression in peripheral tissues: OEA synthase. The note with it: proximal intestine; C57bl6j mice, high fat diet, 100 mg/kg/body weight in diet, 5 weeks. As for the experimental part:
as §1, §2, §3

In test [11] the test system is Ghrelin. The test can be described thus: Real-time PCR gene expression in peripheral tissues: ghrelin. The note with it: stomach; C57bl6j mice, high fat diet, 100 mg/kg/body weight in diet, 5 weeks. As for the experimental part: as §1, §2, §3
The subject of test [12] is Peroxisome proliferator activated receptor alpha (PPAR α). Nature of the test: Real-time PCR gene expression in peripheral tissues: PPAR α. To be noted: proximal intestine; C57bl6j mice, high fat diet, 100 mg/kg/body weight in diet, 5 weeks. As for the experimental part: as §1, §2, §3
Test [13] relates to Fasting induced adipocyte factor (Fiaf). The test can be described thus: Real-time PCR gene expression in peripheral tissues: Fiaf. To be noted: C57bl6j mice, high fat diet, 100 mg/kg/body weight in diet, 5 weeks. The procedure: as §1, §4, §5, §6, §7

For the compound `CCCCCCCC/C=C\CCCCCCCC(=O)N[C@H](C)CO` [KDS 5104, (Z)—(R)-9-octadecenamide, N-(2-hydroxyethyl, 1-methyl)], the “FAS l, ratio of RNA levels relative to control mice” value in test [1] amounted to 2.47. The “G6P l, ratio of RNA levels relative to control mice” value in test [2] is recorded as 2.12. Also, the “GPR119 i, ratio of RNA levels relative to control mice” value in test [3] is 4.95. For the same compound, the “NAAA at ep, ratio of RNA levels relative to control mice” value in test [4] (epidydimal adipose tissue) worked out at 1.38. Besides, in test [4] (peritoneal adipose tissue), the “NAAA at per, ratio of RNA levels relative to control mice” value was found to be 1.52. Also, in test [4] (proximal intestine), the “NAAA i, ratio of RNA levels relative to control mice” value is on record as 1.60. The “PCSK9 l, ratio of RNA levels relative to control mice” value in test [5] amounted to 1.34. For the same compound, the “PepCK l, ratio of RNA levels relative to control mice” value in test [6] stood at 1.55. In [7] (epidydimal adipose tissue), the “visfatin at ep, ratio of RNA levels relative to control mice” value was −1.08. For the same compound, the “visfatin at per, ratio of RNA levels relative to control mice” value in test [7] (peritoneal adipose tissue) is −1.10. For the same compound, the “FAT/CD36 at ep, ratio of RNA levels relative to control mice” value in [8] (epidydimal adipose tissue) is listed as −2.24. Also, the “FAT/CD36 l, ratio of RNA levels relative to control mice” value in test [8] (liver) is listed as 0.88. In addition, the “FAT/CD36 at per, ratio of RNA levels relative to control mice” value in test [8] (peritoneal adipose tissue) turned out to be 1.01. Further, the “FAT/CD36 i, ratio of RNA levels relative to control mice” value in test [8] (proximal intestine) was found to be 1.83. For the same compound, in test [9] (liver), the “CPT1 l, ratio of RNA levels relative to control mice” value is reported as 1.06. For the same compound, the “CPT1 p, ratio of RNA levels relative to control mice” value in test [9] (pancreas) amounted to 1.80. Also, in test [9] (proximal intestine), the “CPT1 i, ratio of RNA levels relative to control mice” value was 1.63. In test [10], the “OEA synthase i, ratio of RNA levels relative to control mice” value is recorded as −1.36. Also, the “ghrelin s, ratio of RNA levels relative to control mice” value in test [11] was 1.04. For the same compound, the “PPAR α i, ratio of RNA levels relative to control mice” value in test [12] turned out to be 1.02. The “Fiaf at ep, ratio of RNA levels relative to control mice” value in [13] (epidydimal adipose tissue) is recorded as 0.46. The “Fiaf at per, ratio of RNA levels relative to control mice” value in [13] (peritoneal adipose tissue) is listed as 2.79. The “Fiaf i, ratio of RNA levels relative to control mice” value in test [13] (proximal intestine) was 0.68.
